How the values were obtained:
PI3K delta = PI3K delta (Homo sapiens (Human), UniProt O00329); assay: Enzymatic PI3K delta isoform inhibition (lipid kinase activity, Kinase-Glo luminescence); format: biochemical; conditions: Enzymatic assay
Outline: (§1)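 IC50s derive from 4-parameter logistic fits of % inhibition across 8 concentrations (usually 10 to 0.003 μM). Lipid kinase reaction: PI3K (10 nM) plus phosphatidylinositol (5 μg/mL) started with 2 μM ATP, stopped near 50% ATP depletion; leftover ATP quantified by Kinase-Glo luminescence.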

PI3K alpha = PI3K alpha (Homo sapiens (Human), UniProt P42336); assay: Enzymatic PI3K alpha isoform inhibition (lipid kinase activity, Kinase-Glo luminescence); format: biochemical; conditions: Enzymatic assay
Chain of PI3K alpha (P42336 other isoform, or with tags, fused parts or gaps): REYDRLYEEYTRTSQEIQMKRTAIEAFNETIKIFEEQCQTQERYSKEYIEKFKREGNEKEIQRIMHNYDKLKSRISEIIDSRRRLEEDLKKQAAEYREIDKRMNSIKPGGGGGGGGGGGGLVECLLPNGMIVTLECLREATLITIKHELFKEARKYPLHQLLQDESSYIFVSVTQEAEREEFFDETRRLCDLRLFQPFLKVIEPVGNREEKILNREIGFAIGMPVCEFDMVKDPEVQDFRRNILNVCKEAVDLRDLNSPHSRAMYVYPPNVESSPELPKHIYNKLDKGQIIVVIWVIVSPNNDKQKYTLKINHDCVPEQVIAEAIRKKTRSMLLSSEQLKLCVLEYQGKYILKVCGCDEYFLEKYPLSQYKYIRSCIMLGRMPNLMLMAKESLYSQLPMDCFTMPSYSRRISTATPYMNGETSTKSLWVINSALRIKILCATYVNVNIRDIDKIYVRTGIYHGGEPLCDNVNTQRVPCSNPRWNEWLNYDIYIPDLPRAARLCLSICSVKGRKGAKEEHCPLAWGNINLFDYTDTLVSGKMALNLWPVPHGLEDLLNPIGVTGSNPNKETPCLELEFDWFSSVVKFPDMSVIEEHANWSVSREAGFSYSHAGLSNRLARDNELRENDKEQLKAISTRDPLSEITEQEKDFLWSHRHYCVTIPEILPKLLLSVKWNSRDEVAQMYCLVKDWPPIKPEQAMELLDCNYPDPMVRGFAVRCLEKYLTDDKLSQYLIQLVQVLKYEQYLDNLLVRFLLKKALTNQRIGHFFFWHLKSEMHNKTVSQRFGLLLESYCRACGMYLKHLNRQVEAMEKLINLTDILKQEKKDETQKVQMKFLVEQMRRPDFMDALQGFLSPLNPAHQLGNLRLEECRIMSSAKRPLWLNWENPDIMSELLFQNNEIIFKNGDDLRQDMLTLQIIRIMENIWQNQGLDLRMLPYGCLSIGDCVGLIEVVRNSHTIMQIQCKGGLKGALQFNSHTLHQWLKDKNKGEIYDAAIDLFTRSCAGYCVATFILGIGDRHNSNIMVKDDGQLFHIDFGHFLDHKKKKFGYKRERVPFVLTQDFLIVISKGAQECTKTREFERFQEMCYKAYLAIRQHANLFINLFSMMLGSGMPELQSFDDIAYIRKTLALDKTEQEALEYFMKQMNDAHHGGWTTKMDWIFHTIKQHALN
Outline: as §1

Chain of PI3K delta (O00329 other isoform, or with tags, fused parts or gaps linker GGGGGG): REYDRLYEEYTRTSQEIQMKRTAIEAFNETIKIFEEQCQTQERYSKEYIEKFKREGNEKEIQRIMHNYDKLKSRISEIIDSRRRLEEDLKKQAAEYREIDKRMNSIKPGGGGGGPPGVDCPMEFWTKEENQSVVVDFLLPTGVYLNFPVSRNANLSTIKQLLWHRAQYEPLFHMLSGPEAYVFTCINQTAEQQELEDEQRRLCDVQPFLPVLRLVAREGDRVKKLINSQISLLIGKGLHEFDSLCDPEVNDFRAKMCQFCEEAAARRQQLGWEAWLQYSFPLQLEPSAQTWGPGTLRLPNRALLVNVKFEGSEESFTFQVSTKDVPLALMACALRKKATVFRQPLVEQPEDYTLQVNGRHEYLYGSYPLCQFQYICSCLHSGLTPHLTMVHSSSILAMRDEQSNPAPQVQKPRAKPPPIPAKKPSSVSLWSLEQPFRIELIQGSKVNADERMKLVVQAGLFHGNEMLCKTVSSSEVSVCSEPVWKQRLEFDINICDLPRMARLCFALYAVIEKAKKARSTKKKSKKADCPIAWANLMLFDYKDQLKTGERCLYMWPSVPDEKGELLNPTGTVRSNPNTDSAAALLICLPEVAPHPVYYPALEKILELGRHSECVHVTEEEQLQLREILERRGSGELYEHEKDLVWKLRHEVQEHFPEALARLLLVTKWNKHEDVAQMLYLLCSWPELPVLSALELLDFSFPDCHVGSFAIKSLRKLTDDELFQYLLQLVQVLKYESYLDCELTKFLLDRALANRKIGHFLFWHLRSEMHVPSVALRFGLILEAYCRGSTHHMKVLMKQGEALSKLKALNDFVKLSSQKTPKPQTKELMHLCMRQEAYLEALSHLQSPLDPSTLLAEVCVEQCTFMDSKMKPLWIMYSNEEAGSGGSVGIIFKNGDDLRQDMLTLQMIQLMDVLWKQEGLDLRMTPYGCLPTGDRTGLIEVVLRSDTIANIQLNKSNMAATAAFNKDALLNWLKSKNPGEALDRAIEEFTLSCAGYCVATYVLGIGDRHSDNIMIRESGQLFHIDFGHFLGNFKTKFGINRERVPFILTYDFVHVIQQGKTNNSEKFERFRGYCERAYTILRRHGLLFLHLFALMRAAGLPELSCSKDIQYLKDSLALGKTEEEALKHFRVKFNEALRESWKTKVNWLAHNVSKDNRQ

| IC50 (PI3K delta) | IC50 (PI3K alpha) | Compound |
| --- | --- | --- |
| 77 nM | 667 nM | COc1ncc(N2CCOc3ccc(O[C@H]4CCN(C(=O)c5cncnc5)C4)cc32)cc1C#N [Example C13, 2-Methoxy-5-{6-[(S)-1-(pyrimidine-5-carbonyl)-pyrrolidin-3-yloxy]-2,3-dihydro-benzo[1,4]oxazin-4-yl}-nicotinonitrile] |
| 4 nM | 239 nM | COc1ncc(N2CCOc3ccc(O[C@H]4CCN(C(=O)CCO)C4)cc32)cc1Cl [Example B107, 1-{(S)-3-[4-(5-Chloro-6-methoxy-pyridin-3-yl)-3,4-dihydro-2H-benzo[1,4]oxazin-6-yloxy]-pyrrolidin-1-yl}-3-hydroxy-propan-1-one] |
| 31 nM | 260 nM | CCC(=O)N1CC[C@H](Oc2ccc3c(c2)N(c2cncc(S(=O)(=O)N(C)OC)c2)CCO3)C1 [Example A30, 5-[6-((S)-1-Propionyl-pyrrolidin-3-yloxy)-2,3-dihydro-benzo[1,4]oxazin-4-yl]-pyridine-3-sulfonic acid methoxy-methyl-amide] |
| 5 nM | 308 nM | COc1ncc(N2CCOc3ccc(O[C@H]4CCN(C(=O)C5CCS(=O)(=O)CC5)C4)c(F)c32)cc1C(F)F [Example I2] |
| 8 nM | 212 nM | Cc1cc(N2CCOc3ccc(O[C@H]4CCN(C(=O)c5cocn5)C4)cc32)cnc1S(C)(=O)=O [Example B24, {(S)-3-[4-(6-Methanesulfonyl-5-methyl-pyridin-3-yl)-3,4-dihydro-2H-benzo[1,4]oxazin-6-yloxy]-pyrrolidin-1-yl}-oxazol-4-yl-methanone] |
| 18 nM | 220 nM | CCC(=O)N1CC[C@H](Oc2ccc3c(c2)N(c2cnc(OC)c(C(F)(F)F)c2)CCO3)C1 [Example A10, 1-{(S)-3-[4-(6-Methoxy-5-trifluoromethyl-pyridin-3-yl)-3,4-dihydro-2H-benzo[1,4]oxazin-6-yloxy]-pyrrolidin-1-yl}-propan-1-one] |
| 3 nM | 134 nM | CS(=O)(=O)c1ncc(N2CCOc3ccc(O[C@H]4CCN(C(=O)C5CCOCC5)C4)cc32)cc1C(F)F [Example B70, {(S)-3-[4-(5-Difluoromethyl-6-methanesulfonyl-pyridin-3-yl)-3,4-dihydro-2H-benzo[1,4]oxazin-6-yloxy]-pyrrolidin-1-yl}-(tetrahydro-pyran-4-yl)-methanone] |
| 37 nM | 4120 nM | COc1ncc(N2CCOc3ccc(O[C@H]4CCN(C(=O)C5CCOC5)C4)cc32)cc1C (stereo partly drawn) [Example B16, {(S)-3-[4-(6-Methoxy-5-methyl-pyridin-3-yl)-3,4-dihydro-2H-benzo[1,4]oxazin-6-yloxy]-pyrrolidin-1-yl}-(tetrahydro-furan-3-yl)-methanone] |
| 12 nM | 723 nM | COc1ncc(N2CCOc3ccc(O[C@H]4CCN(C(=O)C5CCOCC5)C4)cc32)cc1F [Example B18] |
| 14 nM | 567 nM | COc1ncc(N2CCOc3ccc(O[C@H]4CCN(C(=O)c5cocn5)C4)cc32)cc1F [Example B100, {(S)-3-[4-(5-Fluoro-6-methoxy-pyridin-3-yl)-3,4-dihydro-2H-benzo[1,4]oxazin-6-yloxy]-pyrrolidin-1-yl}-oxazol-4-yl-methanone] |
| 9 nM | 71 nM | CCC(=O)N1CC[C@H](Oc2ccc3c(c2)N(c2cncc(S(=O)(=O)N(C)C)c2)CCO3)C1 [Example A39, 5-[6-((S)-1-Propionyl-pyrrolidin-3-yloxy)-2,3-dihydro-benzo[1,4]oxazin-4-yl]-pyridine-3-sulfonic acid dimethylamide] |
| 462 nM | 5360 nM | CCC(=O)N1CC[C@H](Oc2ccc3c(c2)N(c2ccc(C)c(C#N)c2)CCO3)C1 [Example A40, 2-Methyl-5-[6-((S)-1-propionyl-pyrrolidin-3-yloxy)-2,3-dihydro-benzo[1,4]oxazin-4-yl]-benzonitrile] |
| 33 nM | 1160 nM | CCc1cc(N2CCOc3ccc(O[C@H]4CCN(C(=O)C5CCS(=O)(=O)CC5)C4)cc32)cnc1OC [Example B19, (1,1-Dioxo-hexahydro-1lambda*6*-thiopyran-4-yl)-{(S)-3-[4-(5-ethyl-6-methoxy-pyridin-3-yl)-3,4-dihydro-2H-benzo[1,4]oxazin-6-yloxy]-pyrrolidin-1-yl}-methanone] |
| 10 nM | 1030 nM | Cc1cc(N2CCOc3ccc(O[C@H]4CCN(C(=O)[C@H]5CC[C@@H](O)CC5)C4)cc32)cnc1S(C)(=O)=O [Example B51, (4-Hydroxy-cyclohexyl)-{(S)-3-[4-(6-methanesulfonyl-5-methyl-pyridin-3-yl)-3,4-dihydro-2H-benzo[1,4]oxazin-6-yloxy]-pyrrolidin-1-yl}-methanone] |
| 24 nM | 1020 nM | COc1ncc(N2CCOc3ccc(O[C@H]4CON(C(=O)C5CCOCC5)C4)cc32)cc1C#N [Example D22, 2-Methoxy-5-{6-[(R)-2-(tetrahydro-pyran-4-carbonyl)-isoxazolidin-4-yloxy]-2,3-dihydro-benzo[1,4]oxazin-4-yl}-nicotinonitrile] |
| 13 nM | 273 nM | COc1ncc(N2CCOc3ccc(O[C@H]4CCN(C(=O)c5ccn(C)c(=O)c5)C4)cc32)cc1C#N [Example D19, 2-Methoxy-5-{6-[(S)-1-(1-methyl-2-oxo-1,2-dihydro-pyridine-4-carbonyl)-pyrrolidin-3-yloxy]-2,3-dihydro-benzo[1,4]oxazin-4-yl}-nicotinonitrile] |
| 66 nM | 353 nM | Cc1cc(N2CCOc3ccc(O[C@H]4CCN(S(=O)(=O)C(C)C)C4)cc32)cnc1S(C)(=O)=O [Example B82, 4-(6-Methanesulfonyl-5-methyl-pyridin-3-yl)-6-[(S)-1-(propane-2-sulfonyl)-pyrrolidin-3-yloxy]-3,4-dihydro-2H-benzo[1,4]oxazine] |
| 109 nM | 2730 nM | COc1ncc(N2CCOc3ccc(O[C@H]4CCN(C(=O)CCO)C4)cc32)cc1F [Example B113, 1-{(S)-3-[4-(5-Fluoro-6-methoxy-pyridin-3-yl)-3,4-dihydro-2H-benzo[1,4]oxazin-6-yloxy]-pyrrolidin-1-yl}-3-hydroxy-propan-1-one] |
| 95 nM | 5510 nM | COc1ncc(N2c3cc(O[C@H]4CCN(C(=O)C5CCOCC5)C4)ccc3OCC2C)cc1C#N (stereo partly drawn) [Example C5, 2-Methoxy-5-{3-methyl-6-[(S)-1-(tetrahydro-pyran-4-carbonyl)-pyrrolidin-3-yloxy]-2,3-dihydro-benzo[1,4]oxazin-4-yl}-nicotinonitrile] |
| 75 nM | 3360 nM | CCC(=O)N1CC[C@H](Oc2ccc3c(c2)N(c2ccc([S+]([O-])CC)nc2)CCO3)C1 (stereo partly drawn) [Example B121, 1-{(S)-3-[4-(6-Ethanesulfinyl-pyridin-3-yl)-3,4-dihydro-2H-benzo[1,4]oxazin-6-yloxy]-pyrrolidin-1-yl}-propan-1-one] |
| 5 nM | 411 nM | COc1ncc(N2CCOc3ccc(O[C@H]4CCN(C(=O)C5CCOC5)C4)cc32)cc1C#N (single isomer, unassigned) [Example D28] |
| 8 nM | 299 nM | COc1ncc(N2CCOc3ccc(O[C@H]4CCN(C(=O)C5CCS(=O)(=O)C5)C4)cc32)cc1F (single isomer, unassigned) [Example H11] |
| 181 nM | 4260 nM | COc1ncc(N2c3cc(O[C@H]4CCN(C(=O)C5CCOCC5)C4)ccc3OCC2C)cc1C#N (stereo partly drawn) [Example C6, 2-Methoxy-5-{3-methyl-6-[(S)-1-(tetrahydro-pyran-4-carbonyl)-pyrrolidin-3-yloxy]-2,3-dihydro-benzo[1,4]oxazin-4-yl}-nicotinonitrile] |
| 8 nM | 724 nM | COc1ncc(N2CCOc3ccc(O[C@H]4CCN(C(=O)C5COCCO5)C4)cc32)cc1F (single isomer, unassigned) [Example H15] |
| 170 nM | 1570 nM | Nc1ncc(N2CCOc3ccc(O[C@H]4CCN(C(=O)C5CCOCC5)C4)cc32)cc1C(F)(F)F [Example A23, {(S)-3-[4-(6-Amino-5-trifluoromethyl-pyridin-3-yl)-3,4-dihydro-2H-benzo[1,4]oxazin-6-yloxy]-pyrrolidin-1-yl}-(tetrahydro-pyran-4-yl)-methanone] |
| 8 nM | 358 nM | COc1ncc(N2CCOc3ccc(O[C@H]4CCN(C(=O)c5ccncc5)C4)cc32)cc1C#N [Example C17, 2-Methoxy-5-{6-[(S)-1-(pyridine-4-carbonyl)-pyrrolidin-3-yloxy]-2,3-dihydro-benzo[1,4]oxazin-4-yl}-nicotinonitrile] |
| 12 nM | 425 nM | COc1ncc(N2CCOc3ccc(O[C@H]4CCN(C(=O)c5cn(C)nc5C)C4)cc32)cc1C#N [Example C18, 5-{6-[(S)-1-(1,3-Dimethyl-1H-pyrazole-4-carbonyl)-pyrrolidin-3-yloxy]-2,3-dihydro-benzo[1,4]oxazin-4-yl}-2-methoxy-nicotinonitrile] |

| Compound | IC50 (PI3K delta) | IC50 (PI3K alpha) |
| --- | --- | --- |
| COc1ncc(N2CCOc3ccc(O[C@H]4CCN(C(=O)C5CCS(=O)(=O)C5)C4)cc32)cc1C (stereo partly drawn) [Example B13, (1,1-Dioxo-tetrahydro-1lambda*6*-thiophen-3-yl)-{(S)-3-[4-(6-methoxy-5-methyl-pyridin-3-yl)-3,4-dihydro-2H-benzo[1,4]oxazin-6-yloxy]-pyrrolidin-1-yl}-methanone] | 62 nM | 862 nM |
| COc1ncc(N2CCOc3cnc(OC4CCN(C(=O)C5CCS(=O)(=O)CC5)C4)cc32)cc1C (stereo not shown) [Example F12, (1,1-Dioxo-hexahydro-1lambda*6*-thiopyran-4-yl)-{3-[1-(6-methoxy-5-methyl-pyridin-3-yl)-2,3-dihydro-1H-pyrido[3,4-b][1,4]oxazin-7-yloxy]-pyrrolidin-1-yl}-methanone] | < 3 nM | 440 nM |
